Laboratory results as given in patent publication US7622480B2, “Azaindolylpiperidine derivatives as antihistaminic and antiallergic agents” (Laboratorios Almirall S.A., priority 2002, dated 2009).

Columns and labels:
[1] = test system: Histamine-induced skin vascular permeability in rats; experiment: Histamine-induced skin vascular permeability in rats; assay type: in vivo; details: Rattus norvegicus, 4 h; Male Wistar rats, oral, dose of 3 mg/Kg, four hours after administration, compared with vehicle treated group
Method: Either one, four, eight or 24 hours later the rats were lightly anaesthetized with ether and a cutaneous reaction was induced by two intradermal injections of 50 μl of histamine (100 μg/ml) onto the back, followed by a intravenous injection of 3 ml/kg of Evan's Blue (5 mg/ml), both dissolved in saline. Sixty minutes later, the rats were killed by cervical dislocation and the back skin dissected free. The diameter (in millimetres) of the papule was measured in two directions and the area was calculated.

[2] = target: T1, histamine H1 receptor (Cavia porcellus, UniProt P31389); experiment: Histamine-H1 receptor binding assay; details: guinea pig cerebellum membranes, 0.7 nM [3H]-mepyramine, 30 min at 30° C.
T1 construct: performed in guinea pig cerebellum membranes as described previously; from tissue; host or cells: guinea pig cerebellum membranes
Method: (1) In vitro histamine H1 receptor binding assay, to measure the affinity of the compounds. […] Briefly, the membrane suspensions (160 μg/ml) were incubated at 30° C. with 0.7 nM [^3H]-mepyramine and different concentrations of the test compounds in a final volume of 250 μl. Binding reactions were terminated by filtration after 30 min of incubation and the bound radioactivity was determined. The non-specific binding was measured in the presence of 10 μM of promethazine. The affinity of each test compound to the receptor was determined by using at least six different concentrations run in duplicate. IC50 values were obtained by non-linear regression by use of SAS on a DEC AXP computer.

T1 sequence (P31389 whole entry): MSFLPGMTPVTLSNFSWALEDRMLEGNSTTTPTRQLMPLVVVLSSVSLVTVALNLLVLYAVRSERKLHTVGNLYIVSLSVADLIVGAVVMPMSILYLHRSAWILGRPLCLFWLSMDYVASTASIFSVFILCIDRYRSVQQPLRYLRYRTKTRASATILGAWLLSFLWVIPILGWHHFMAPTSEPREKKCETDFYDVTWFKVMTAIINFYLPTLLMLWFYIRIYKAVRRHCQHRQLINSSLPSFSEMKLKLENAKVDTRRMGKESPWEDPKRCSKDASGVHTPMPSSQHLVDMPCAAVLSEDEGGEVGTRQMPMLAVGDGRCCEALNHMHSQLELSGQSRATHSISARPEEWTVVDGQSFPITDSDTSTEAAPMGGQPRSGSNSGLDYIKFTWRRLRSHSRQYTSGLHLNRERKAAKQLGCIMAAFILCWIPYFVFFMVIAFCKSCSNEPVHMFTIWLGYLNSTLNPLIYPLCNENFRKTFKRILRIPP

| SMILES | inhibition in vivo at 3 mg/kg [1] [%] | IC50 [2] [nM] | melting point [°C] |
| --- | --- | --- | --- |
| CCOCCn1cc(C2CCN(Cc3cccc(C(=O)O)c3)CC2)c2cccnc21 [Example 4, 3-{4-[1-(2-ethoxyethyl)-1H-pyrrolo[2,3-b]pyridin-3-yl]piperidin-1-ylmethyl}benzoic acid] | > 50 | 403 |  |
| O=C(O)c1ccccc1OCCN1CCC(c2cn(Cc3ccco3)c3ncccc23)CC1 [Example 8, 2-{2-[4-(1-furan-2-ylmethyl-1H-pyrrolo[2,3-b]pyridin-3-yl)-piperidin-1-yl]-ethoxy}-benzoic acid] | > 50 | 405 |  |
| O=C(O)c1cccc(CN2CCC(c3cn(Cc4ccco4)c4ncccc34)CC2)c1 [Example 9, 3-[4-(1-furan-2-ylmethyl-1H-pyrrolo[2,3-b]pyridin-3-yl)piperidin-1-ylmethyl]-benzoic acid] | > 50 | 150 |  |
| O=C(O)c1ccc(Cl)cc1OCCN1CCC(c2cn(Cc3ccoc3)c3ncccc23)CC1 [Example 44, 4-chloro-2-{2-[4-(1-furan-3-ylmethyl-1H-pyrrolo[2,3-b]pyridin-3-yl)-piperidin-1-yl]-ethoxy}-benzoic acid] | > 50 | 70 | 81.6 to 83.3 |
| CCOCCn1cc(C2CCN(CCOc3ccccc3C(=O)O)CC2)c2cccnc21 [Example 6] | > 50 | 190 |  |
| CCOCCn1cc(C2CCN(Cc3ccc(OC)c(C(=O)O)c3)CC2)c2cccnc21 [Example 5] | > 50 | 695 |  |
| CCOCCn1cc(C2CCN(CCOc3cc(OC)ccc3C(=O)O)CC2)c2cccnc21 [Example 36, 2-(2-{4-[1-(2-ethoxyethyl)-1H-pyrrolo[2,3-b]pyridin-3-yl]-piperidin-1-yl}-ethoxy)-4-methoxybenzoic acid] | > 50 | 160 |  |
| O=C(O)c1cccc(CN2CCC(c3cn(Cc4ccoc4)c4ncccc34)CC2)c1 [Example 2, 3-[4-(1-furan-3-ylmethyl-1H-pyrrolo[2,3-b]pyridin-3-yl)piperidin-1-ylmethyl]benzoic acid] | > 50 | 560 |  |
| CCCCn1cc(C2CCN(CCOc3cc(OC)ccc3C(=O)O)CC2)c2cccnc21 [Example 61, 2-{2-[4-(1-butyl-1H-pyrrolo[2,3-b]pyridin-3-yl)piperidin-1-yl]-ethoxy}-4-methoxybenzoic acid] | > 50 | 100 |  |
| O=C(O)c1ccccc1OCCN1CCC(c2cn(Cc3ccoc3)c3ncccc23)CC1 [Example 3, 2-{2-[4-(1-furan-3-ylmethyl-1H-pyrrolo[2,3-b]pyridin-3-yl)piperidine-1-yl]ethoxy}benzoic acid] | > 50 | 225 |  |
| CCCCn1cc(C2CCN(Cc3ccc(OC)c(C(=O)O)c3)CC2)c2cccnc21 [Example 24, 5-[4-(1-butyl-1H-pyrrolo[2,3-b]pyridin-3-yl)piperidin-1-ylmethyl]-2-methoxybenzoic acid] | > 50 | 475 |  |
